Blank lines part the entries; values can stand above or below the molecule they belong to.
Test: Particle size of drug after redispersion in distilled water (laser scattering particle size analyzer)
Assay type: physicochemical
Description: Each powder (0.01 g) was redispersed in distilled water (5 mL) and particle size was measured. Electron microscopic images of the powders when the concentration of the carageenan solution was 0.1 wt % and 2 wt % are shown in FIGS. 2a and 2b, respectively. The redispersion was conducted by lightly shaking the mixture with a hand. The particle size was measured under aqueous condition using a laser scattering particle size analyzer (LA 910, Horiba, Japan) (Mie & Fraunhofer, relative refraction index=1). The resolving power of the ultrasonic disperser used for the particle size measurement was 40 W (39 kHz), and the speed of stirring and circulation was 340 mL/min. The particle size measurement was made after performing ultrasonic dispersion for 1 minute.

- Average particle size (carageenan 5 wt %, freeze dried powder redispersed in distilled water, different drugs): 0.16 (±0.09) μm
Structure (SMILES): C=CC[C@@H]1/C=C(\C)C[C@H](C)C[C@H](OC)[C@H]2O[C@@](O)(C(=O)C(=O)N3CCCC[C@H]3C(=O)O[C@H](/C(C)=C/[C@@H]3CC[C@@H](O)[C@H](OC)C3)[C@H](C)[C@@H](O)CC1=O)[C@H](C)C[C@@H]2OC [Tacrolimus, tacrolimus]

- Average particle size (1 wt % carageenan, hot air drying at 40 °C, redispersed in distilled water): 0.39 (±1.01) μm
- Average particle size (1 wt % carageenan, hot air drying at 60 °C, redispersed in distilled water): 0.36 (±0.29) μm
- drug particle size (alginic acid 1 wt %, vacuum drying at room temperature, redispersed in distilled water): 0.31 (±0.41)
- drug particle size (alginic acid 2 wt %, vacuum drying at room temperature, redispersed in distilled water): 0.19 (±0.05)
- Average particle size (carageenan 0.1 wt %, freeze dried powder redispersed in distilled water): 0.91 (±2.00) μm
- Average particle size (carageenan 0.5 wt %, freeze dried powder redispersed in distilled water): 0.31 (±0.10) μm
- Average particle size (carageenan 0.5 wt %, vacuum drying at room temperature, redispersed in distilled water): 0.36 (±0.71) μm
- Average particle size (carageenan 1 wt %, freeze dried powder redispersed in distilled water): 0.28 (±0.08) μm
- Average particle size (carageenan 1 wt %, vacuum drying at room temperature, redispersed in distilled water): 0.26 (±0.06) μm
- Average particle size (carageenan 2 wt %, freeze dried powder redispersed in distilled water): 0.23 (±0.06) μm
- Average particle size (carageenan 2 wt %, vacuum drying at room temperature, redispersed in distilled water): 0.21 (±0.06) μm
- Average particle size (carageenan 3 wt %, freeze dried powder redispersed in distilled water): 0.26 (±0.07) μm
- Average particle size (carageenan 3 wt %, vacuum drying at room temperature, redispersed in distilled water): 0.23 (±0.06) μm
- Average particle size (carageenan 5 wt %, freeze dried powder redispersed in distilled water): 0.12 (±0.05) μm
- drug particle size (gelatin 1 wt %, freeze drying, redispersed in distilled water): 0.45 (±0.89)
- drug particle size (gelatin 2 wt %, freeze drying, redispersed in distilled water): 0.16 (±0.08)
- drug particle size (gelatin 3 wt %, freeze drying, redispersed in distilled water): 0.13 (±0.06)
- drug particle size (gelatin 3 wt %, vacuum drying at room temperature, redispersed in distilled water): 0.36 (±0.10)
- drug particle size (gelatin 5 wt %, freeze drying, redispersed in distilled water): 0.16 (±0.05)
- Average particle size (naproxen concentration 16 wt %, carageenan 0.5 wt %, freeze dried, redispersed in distilled water): 0.56 (±1.20) μm
- Average particle size (naproxen concentration 16 wt %, carageenan 1 wt %, freeze dried, redispersed in distilled water): 0.22 (±0.07) μm
- average particle size of the naproxen particles (slurry mixture after wet grinding (before drying) redispersed in distilled water): 0.10 μm
Structure (SMILES): COc1ccc2cc([C@H](C)C(=O)O)ccc2c1 [naproxen]
